Experimental data published in PMC6689897, “Drugging an undruggable pocket on KRAS” (Proceedings of the National Academy of Sciences of the …, 2019).
pKd: −log10 of the molar value.

What was measured:
GCP-KRASG12D = GCP-KRASG12D (Homo sapiens, UniProt P01116, G12D); experiment: KD(HSQC) NMR; type: binding
Protocol: (§1) 80 difference spectrum. Mixtures of four fragments (each at 250 µM) were incubated in 25
(§2) 82 a mixture of GCP-KRASG12D and GDP-KRASG12V (each 4 µM). Binders were identified
(§3) 83 by comparing pre-recorded reference spectra with the STD difference spectrum.
(§4) 84 Deconvolution and confirmation of primary FBS hits obtained from STD-NMR and
(§5) 85 MST was performed using 2D 1H/15N TROSY NMR experiments(2) collected on a
(§6) 86 Bruker Avance III 600 MHz spectrometer equipped with a 5 mm z-gradient TCI cryo-
(§7) 87 probe. Samples were prepared directly before data acquisition using a Tecan Freedom
(§8) 88 Evo pipetting system and delivered by a Bruker Sample Rail to the magnet. Each sample
(§9) 89 contained either 50 µM 15N labeled GDP-KRASG12D or GCP-KRASG12D in 25 mM Tris-
(§10) 90 d11, 100 mM NaCl, 2 mM MgCl2, 0.5 mM TCEP pH 7.4 and 8% (v/v) D2O. Proteins […]
(§11) 92 d6DMSO. Spectra were recorded with 32 transients and 64 data points in the indirect […]
(§12) 100 support compound optimization. 1H/15N SoFast HMQC experiments(3) were recorded in […]
(§13) 102 recorded on a Avance III 700MHz spectrometer equipped with a cryogenically cooled […]
(§14) 107 DMSO. KDs were calculated from the differences in chemical shift induced by t he small […]
(§15) 109 dimension were calculated according to the following equation: […]
(§16) 120 (MicroCalTM, LLC Northampton, MA). Protein solutions were measured in 20 mM […]
(§17) 125 were analyzed with the MicroCal PEAQ-ITC analysis software package. […]

GDP-KRASG12D = GDP-KRASG12D (Homo sapiens, UniProt P01116, G12D); experiment: KD(HSQC) NMR; type: binding
Chain of GDP-KRASG12D (P01116 1-169 isoform P01116-2 G12D): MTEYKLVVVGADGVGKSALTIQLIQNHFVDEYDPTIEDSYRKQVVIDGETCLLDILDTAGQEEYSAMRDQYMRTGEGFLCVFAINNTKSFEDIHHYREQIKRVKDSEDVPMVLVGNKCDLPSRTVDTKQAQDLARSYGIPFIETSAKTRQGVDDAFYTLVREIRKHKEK
Protocol: as §1, §2, §3, §4, §5, §6, §7, §8, §9, §10, §11, §12, §13, §14, §15, §16, §17

Chain of GCP-KRASG12D (P01116 1-169 isoform P01116-2 G12D): as above

CN(C)Cc1[nH]c2ccccc2c1[C@H]1NC(=O)c2ccc(O)cc21 [Compound 18]
pKd (GCP-KRASG12D): 4.77 | pKd (GDP-KRASG12D): 4.80
